# Target: hTRPA1 (Homo sapiens (Human), UniProt O75762)
# Assay: Dose response calcium flux assay (FLIPR), ChanTest hTRPA1-CHO stably transfected cell line
# Format: cell-based
# Settings: CHO-K1 Tet-On human TRPA1 cells, cinnamaldehyde agonist (final 100 uM)
# Description: IC50 Determinations of Exemplified Compounds Dose Response Assay: Chan Test hTRPA1-CHO Stably Transfected Cell Line
# CHO-K1 Tet-On_HOMSA_TRPA1_Clone_20
# Chinese Hamster Ovary cells, inducible expression
# • Ham's F-12 with 10% tetracycline-free FBS • 1× penicillin-streptomycin • 1× glutamax • 0.01 mg/ml Blasticidin • 0.40 mg/ml Zeocin • The cell line doubling rate was ˜15 hours. […] Experiments were run at 24 hours post induction. Plating Conditions CHOK1/TRPA1 Cells: • Harvested cells with 0.025% trypsin/EDTA. • Resuspended cells in growth media without selection antibiotics. • Measured cell density and diluted to 2.4×10^5 cells/ml in media containing 1 ug/ml Doxycycline Plate 25 ul/well into 384 well black/clear tissue culture-treated plates. • Incubated overnight at 37° C. Calcium Flux Assay: Day of Assay: Reagents: • Replacement Buffer: Hank's Balanced Salt Solution, 20 mM HEPES along with 0.005% BSA and 2× Probenecid • Dye Loading Buffer: Cal-3 NW Calcium dye was prepared by dissolving the contents of one vial with […] Hank's Balanced Salt Solution containing 20 mM HEPES. • Control compounds for CHOK1/TRPA1 cells: AP-18, stock 10 mM, prepare 3.5× compound dilution in a Compound Buffer (HBSS/20 mM HEPES/0.005% BSA)—final concentration 10 uM. • Preparation of Cinnamaldehyde (agonist addition): FW=132.16 • Specific gravity=1.046 gm/cc • 1.32 gm/1.046 gm/cc=1.26 ml of stock • Add 1.74 ml DMSO=3.3 M stock • Working solution 4.5× (final 100 uM in Compound Buffer: HBSS/20 mM HEPES/0.005% BSA) • Compounds dilutions were prepared from 5 or 10 mM stock (100% DMSO): • Adjustments of volumes and concentrations were made at time of titration to reflect desired final assay concentrations. • Compounds were tested at either 20 μM three folds dilution 11 steps out or 30 μM two folds dilution 11 steps out. • 3 μl of diluted compound were transferred into Weidmann 384-well plate in duplicates side-by-side. • Compound plates were resuspended with 100 ul of HBSS/20 mM HEPES/0.005% BSA buffer (Compound Buffer): • column 1A-H: buffer/DMSO (bk) • column 2A-H: AP-18 (control antagonist for CHOK1 TRPA1 cells) • column 1I-P: ATP (control for CHOK1 teton cells) • column 2 I-P: 2APB (control antagonist for CHOK1/TRPM8 cells). Growth media was removed from the cell plates (20 ul) and 20 ul of the Replacement Buffer was added followed by addition of 25 ul of diluted dye. All three steps were performed using a Plate Washer BioTek 407. The plates were then incubated for 30′ at RT.
# After incubation, both the cell and compound plates were brought to the FLIPR and 20 ul of the diluted compounds/antagonist/bk were transferred to the cell plates by the FLIPR. Plates were then incubated for 30′ at room temperature. After 30′ incubation, plates were returned to the FLIPR and 20 ul of 4.5× Cinnamaldehyde was added to the cell plates. During the compound addition as well as agonist addition, fluorescence readings were taken simultaneously from all 384 wells of the cell plate every 1.5 seconds. Five readings were taken to establish a stable baseline, then 20 ul of sample was rapidly (30 ul/sec) and simultaneously added to each well of the cell plate. The fluorescence was continuously monitored before, during and after sample/agonist addition for a total elapsed time of 100 seconds (compound addition) and 120 seconds (agonist addition). Responses (increase in peak fluorescence) in each well following agonist addition was determined. The initial fluorescence reading from each well, prior to ligand stimulation, was used a zero baseline value for the data from that well.
# hTRPA1, sequence (O75762 whole entry): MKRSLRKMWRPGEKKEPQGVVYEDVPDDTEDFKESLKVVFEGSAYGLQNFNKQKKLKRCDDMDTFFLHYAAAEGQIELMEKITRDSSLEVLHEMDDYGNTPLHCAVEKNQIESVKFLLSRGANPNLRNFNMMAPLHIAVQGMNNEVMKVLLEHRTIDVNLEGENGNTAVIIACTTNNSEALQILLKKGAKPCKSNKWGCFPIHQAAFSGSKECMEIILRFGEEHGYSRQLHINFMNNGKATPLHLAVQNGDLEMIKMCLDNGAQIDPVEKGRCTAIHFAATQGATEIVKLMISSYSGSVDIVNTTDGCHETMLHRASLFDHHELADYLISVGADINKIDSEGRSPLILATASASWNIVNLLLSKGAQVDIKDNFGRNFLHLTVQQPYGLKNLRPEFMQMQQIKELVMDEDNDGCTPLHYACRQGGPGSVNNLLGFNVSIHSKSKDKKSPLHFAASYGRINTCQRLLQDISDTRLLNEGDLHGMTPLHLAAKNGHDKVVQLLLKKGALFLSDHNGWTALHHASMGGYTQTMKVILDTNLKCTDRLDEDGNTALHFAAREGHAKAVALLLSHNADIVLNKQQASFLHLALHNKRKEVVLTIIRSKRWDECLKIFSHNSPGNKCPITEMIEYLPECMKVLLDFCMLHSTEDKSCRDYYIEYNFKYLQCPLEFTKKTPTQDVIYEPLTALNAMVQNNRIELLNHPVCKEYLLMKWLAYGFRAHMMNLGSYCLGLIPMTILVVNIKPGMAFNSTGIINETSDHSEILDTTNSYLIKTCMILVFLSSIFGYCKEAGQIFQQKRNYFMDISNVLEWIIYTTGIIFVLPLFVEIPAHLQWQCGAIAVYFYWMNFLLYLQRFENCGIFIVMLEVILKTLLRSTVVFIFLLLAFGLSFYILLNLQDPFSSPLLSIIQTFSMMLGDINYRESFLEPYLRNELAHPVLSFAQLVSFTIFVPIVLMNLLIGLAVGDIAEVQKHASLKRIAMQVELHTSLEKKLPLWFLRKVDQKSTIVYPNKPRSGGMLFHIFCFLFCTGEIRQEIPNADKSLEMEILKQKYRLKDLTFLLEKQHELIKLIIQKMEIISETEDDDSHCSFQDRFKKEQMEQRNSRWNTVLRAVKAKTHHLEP
row,IC50 [nM],Structure (SMILES)
1,130,"CN(C(CO)C(=O)NCc1cccc(-c2ccc(C(F)(F)F)cc2)c1)S(=O)(=O)c1ccc(F)cc1 (stereo not drawn) [Example 51, 2-[(4-Fluoro-benzenesulfonyl)-methyl-amino]-3-hydroxy-N-(4′-trifluoromethyl-biphenyl-3-ylmethyl)-propionamide]"
2,98,"COC[C@@H](C(=O)NCc1cccc(-c2ccc(C(F)(F)F)cc2)c1)N(C)S(=O)(=O)c1ccc(F)cc1 [Example 52, (S)-2-[(4-Fluoro-benzenesulfonyl)-methyl-amino]-3-methoxy-N-(4′-trifluoromethyl-biphenyl-3-ylmethyl)-propionamide]"
3,1760,"O=C(CN(CC1COC1)S(=O)(=O)c1ccc(F)cc1)NCc1cccc(-c2ccc(C(F)(F)F)cc2)c1 [Example 54, 2-[(4-Fluoro-benzenesulfonyl)-oxetan-3-ylmethyl-amino]-N-(4′-trifluoron-3-ylmethyl-amino]-N-(4′-trifluoromethyl-biphenyl-3-ylmethyl)-acetamide]"
4,130,"CC(C)N(CC(=O)NCc1cc(-c2ccc(C(F)(F)F)nc2)ccn1)S(=O)(=O)c1ccc(F)cc1 [Example 55, 2-[(4-Fluoro-benzenesulfonyl)-isopropyl-amino]-N-(6-trifluoromethyl-[3,4′]bipyridinyl-2′-ylmethyl)-acetamide]"
5,550,"CC(C)N(CC(=O)NCc1cc(-c2ccc(C(F)(F)F)cc2)ncn1)S(=O)(=O)c1cccnc1 [Example 56, 2-[Isopropyl-(pyridine-3-sulfonyl)-amino]-N-[6-(4-trifluoromethyl-phenyl)-pyrimidin-4-ylmethyl]-acetamide]"
6,180,"CC(C)N(CC(=O)NCc1cncc(-c2ccc(C(F)(F)F)cc2)c1)S(=O)(=O)c1ccc(F)cc1 [Example 57, 2-[(4-Fluoro-benzenesulfonyl)-isopropyl-amino]-N-[5-(4-trifluoromethyl-phenyl)-pyridin-3-ylmethyl]-acetamide]"
7,230,"CC(C)N(CC(=O)NCc1ccnc(-c2ccc(C(F)(F)F)nc2)c1)S(=O)(=O)c1ccc(F)cc1 [Example 58, 2-[(4-Fluoro-benzenesulfonyl)-isopropyl-amino]-N-(6′-trifluoromethyl-[2,3′]bipyridinyl-4-ylmethyl)-acetamide]"
8,99,"CC(C)N(CC(=O)NCc1ccnc(-c2ccc(C(F)(F)F)cc2)c1)S(=O)(=O)c1cccc(F)c1 [Example 59, 2-[(3-Fluoro-benzenesulfonyl)-isopropyl-amino]-N-[2-(4-trifluoromethyl-phenyl)-pyridin-4-ylmethyl]-acetamide]"
9,200,"O=C(CN(C1COC1)S(=O)(=O)c1ccc(F)cc1)NCc1cccc(-c2ccc(C(F)(F)F)cc2)c1 [Example 60, 2-[(4-Fluoro-benzenesulfonyl)-oxetan-3-yl-amino]-N-(4′-trifluoromethyl-biphenyl-3-ylmethyl)-acetamide]"
10,140,"CC(C)N(CC(=O)NCc1cc(-c2ccc(C(F)(F)F)nc2)ncn1)S(=O)(=O)c1ccc(F)cc1 [Example 61, 2-[(4-Fluoro-benzenesulfonyl)-isopropyl-amino]-N-[6-(6-trifluoromethyl-pyridin-3-yl)-pyrimidin-4-ylmethyl]-acetamide]"
11,38,"CC(C)N(CC(=O)NCc1cc(F)cc(-c2ccc(C(F)(F)F)nc2)c1)S(=O)(=O)c1ccc(F)cc1 [Example 63, 2-[(4-Fluoro-benzenesulfonyl)-isopropyl-amino]-N-[3-fluoro-5-(6-trifluoromethyl-pyridin-3-yl)-benzyl]-acetamide]"
12,83,"CC(C)N(CC(=O)NCc1cc(-c2ccc(C(F)(F)F)cc2)ncn1)S(=O)(=O)c1ccc(Cl)nc1 [Example 64, 2-[(6-Chloro-pyridine-3-sulfonyl)-isopropyl-amino]-N-[6-(4-trifluoromethyl-phenyl)-pyrimidin-4-ylmethyl]-acetamide]"
13,3860,"CC(C)N(CC(=O)NCc1cc(-c2ccc(C(F)(F)F)cc2)ncn1)S(=O)(=O)c1ccccc1C#N [Example 65, 2-[(2-Cyano-benzenesulfonyl)-isopropyl-amino]-N-[6-(4-trifluoromethyl-phenyl)-pyrimidin-4-ylmethyl]-acetamide]"
14,170,"CC(C)N(CC(=O)NCc1cccc(-c2ccc(C(F)(F)F)nn2)c1)S(=O)(=O)c1ccc(F)cc1 [Example 66, 2-[(4-Fluoro-benzenesulfonyl)-isopropyl-amino]-N-[3-(6-trifluoromethyl-pyridazin-3-yl)-benzyl]-acetamide]"
15,380,"CC(C)N(CC(=O)NCc1cc(-c2ccc(C(F)(F)F)cc2)ncn1)S(=O)(=O)c1cnccn1 [Example 67, 2-[Isopropyl-(pyrazine-2-sulfonyl)-amino]-N-[6-(4-trifluoromethyl-phenyl)-pyrimidin-4-ylmethyl]-acetamide]"
16,47,"CC(C)N(CC(=O)NCc1cccc(-c2cnc(C(F)(F)F)nc2)c1)S(=O)(=O)c1ccc(F)cc1 [Example 68, 2-[(4-Fluoro-benzenesulfonyl)-isopropyl-amino]-N-[3-(2-trifluoromethyl-pyrimidin-5-yl)-benzyl]-acetamide]"
17,19,"CC(C)N(CC(=O)NCc1cc(-c2ccc(C(F)(F)F)cc2)ncn1)S(=O)(=O)c1ccc(F)c(F)c1 [Example 69, 2-[(3,4-Difluoro-benzenesulfonyl)-isopropyl-amino]-N-[6-(4-trifluoromethyl-phenyl)-pyrimidin-4-ylmethyl]-acetamide]"
18,48,"CC(C)N(CC(=O)NCc1ccc(F)c(-c2cnc(C(F)(F)F)nc2)c1)S(=O)(=O)c1ccc(F)cc1 [Example 70, 2-[(4-Fluoro-benzenesulfonyl)-isopropyl-amino]-N-[4-fluoro-3-(2-trifluoromethyl-pyrimidin-5-yl)-benzyl]-acetamide]"
19,79,"CC(C)N(CC(=O)NCc1cccc(-c2cnc(C(F)(F)F)cn2)c1)S(=O)(=O)c1ccc(F)cc1 [Example 71, 2-[(4-Fluoro-benzenesulfonyl)-isopropyl-amino]-N-[3-(5-trifluoromethyl-pyrazin-2-yl)-benzyl]-acetamide]"
20,233,"CC(C)N(CC(=O)NCc1cccc(-c2cnc(C(F)(F)F)cn2)c1)S(=O)(=O)c1ccc(Cl)nc1 [Example 72, 2-[(6-Chloro-pyridine-3-sulfonyl)-isopropyl-amino]-N-[3-(5-trifluoromethyl-pyrazin-2-yl)-benzyl]-acetamide]"
21,682,"CC(C)N(CC(=O)NCc1cccc(-c2ccc(C(F)(F)F)nn2)c1)S(=O)(=O)c1ccc(Cl)nc1 [Example 73, 2-[(6-Chloro-pyridine-3-sulfonyl)-isopropyl-amino]-N-[3-(6-trifluoromethyl-pyridazin-3-yl)-benzyl]-acetamide]"
22,298,"CC(C)N(CC(=O)NCc1ccnc(-c2cnc(C(F)(F)F)nc2)c1)S(=O)(=O)c1ccc(F)cc1 [Example 74, 2-[(4-Fluoro-benzenesulfonyl)-isopropyl-amino]-N-[2-(2-trifluoromethyl-pyrimidin-5-yl)-pyridin-4-ylmethyl]-acetamide]"
23,25,"CC(C)N(CC(=O)NCc1cc(-c2ccc(C(F)(F)F)cc2)ncn1)S(=O)(=O)c1ccc(Cl)s1 [Example 75, 2-[(5-Chloro-thiophene-2-sulfonyl)-isopropyl-amino]-N-[6-(4-trifluoromethyl-phenyl)-pyrimidin-4-ylmethyl]-acetamide]"
24,20,"CC(C)N(CC(=O)NCc1cc(-c2ccc(C(F)(F)F)nc2)ncn1)S(=O)(=O)c1ccc(Cl)s1 [Example 76, 2-[(5-Chloro-thiophene-2-sulfonyl)-isopropyl-amino]-N-[6-(6-trifluoromethyl-pyridin-3-yl)-pyrimidin-4-ylmethyl]-acetamide]"
